Reference: patent EP0100527A1, “4H-1,4-benzothiazines for use as medicaments” (BAYER AG, priority 1982, dated 1984)

Target: T1, Lipoxygenase in Kaninchen-PMN-Leukozyten (Oryctolagus cuniculus, UniProt G1SNX0)
T1 construct: Die polymorphkernigen Leukozyten des Menschen und des Kaninchens metabolisieren die Arachidonsäure; endogenous in cells; host or cells: rabbit polymorphonuclear (PMN) leukocytes
T1 sequence (G1SNX0 1-674): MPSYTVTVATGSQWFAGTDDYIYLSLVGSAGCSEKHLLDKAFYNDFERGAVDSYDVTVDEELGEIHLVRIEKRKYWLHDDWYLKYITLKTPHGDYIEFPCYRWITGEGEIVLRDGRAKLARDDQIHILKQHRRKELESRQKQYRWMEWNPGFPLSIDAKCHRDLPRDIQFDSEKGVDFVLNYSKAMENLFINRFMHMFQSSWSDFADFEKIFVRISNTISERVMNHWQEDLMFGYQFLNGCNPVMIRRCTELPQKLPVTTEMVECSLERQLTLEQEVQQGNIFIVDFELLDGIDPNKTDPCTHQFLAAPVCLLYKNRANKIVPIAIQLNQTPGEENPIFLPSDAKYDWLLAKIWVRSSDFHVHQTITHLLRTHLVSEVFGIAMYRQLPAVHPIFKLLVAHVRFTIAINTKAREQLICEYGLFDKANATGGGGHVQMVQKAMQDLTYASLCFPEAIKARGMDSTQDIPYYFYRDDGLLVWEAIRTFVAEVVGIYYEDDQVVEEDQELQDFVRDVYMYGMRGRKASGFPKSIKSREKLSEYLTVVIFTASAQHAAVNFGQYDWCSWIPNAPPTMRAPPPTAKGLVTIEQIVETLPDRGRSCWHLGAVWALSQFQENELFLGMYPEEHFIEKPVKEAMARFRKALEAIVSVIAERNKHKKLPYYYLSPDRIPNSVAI
Test: Inhibition of lipoxygenase (release of 5-HETE and leukotriene B4) in rabbit PMN leukocytes
Assay type: cell-based
Text: Analog den vorstehenden Ausführungen lassen sich die lipoxygenasehemmenden Eigenschaften der erfindungsgemäßen Verbindungen auch an Leukozyten nachweisen.
Die polymorphkernigen Leukozyten des Menschen und des Kaninchens metabolisieren die Arachidonsäure zu 5-Hydroxy-5,8,11,14-eikosatetraensäure (5-HETE) und Leukotrien B4 (5S, 12R-Dihydroxy-6 cis, 8,10-trans-14 ciseikosatetraensäure). Die Hemmung der Freisetzung von 5-HETE und Leukotrien B4 aus den Leukozyten stellt ein Maß für den lipoxygenasehemmenden Effekt der erfindungsgemäßen Verbindungen dar. (Vergl. Tab. 1) Der Test mit den Humanleukozyten wurde nach Borgeat und Samuelsson (j. Biol. Chem. 254; 2643, 1979 und Proc. Natl. Acad. Sci. USA, 76, 2148 1979), mit Kaninchenleukozyten nach Walker und .Parish (Inter. Archs. Allergy appl. Immun. 66, 83, 1981) durchgeführt.

With `CC1=C(C(=O)OCCC#N)Sc2ccccc2N1` [Beispiel 1, 3-Methyl-4H-1,4-benzothiazin-2-carbonsäure-(2-cyanethyl)-ester] the “Minimale Konzentration für die Hemmung der Lipoxygenase in Kaninchen-PMN-Leukozyten” value was 5x10^-7 - 10^-6 g/ml.
With `COC(=O)C1=C(C)Nc2ccccc2S1` [Beispiel 2] the “Minimale Konzentration für die Hemmung der Lipoxygenase in Kaninchen-PMN-Leukozyten” value was 5x10^-7 - 10^-6 g/ml.
For `CCOC(=O)C1=C(CC)Nc2ccccc2S1` [Beispiel 4], the “Minimale Konzentration für die Hemmung der Lipoxygenase in Kaninchen-PMN-Leukozyten” value was 5x10^-7 - 10^-6 g/ml.
`CC1=C(C(=O)OC2CCCCC2)Sc2ccccc2N1` [Beispiel 5] was tested, and the “Minimale Konzentration für die Hemmung der Lipoxygenase in Kaninchen-PMN-Leukozyten” value was 5x10^-7 - 10^-6 g/ml.
For `CSCCOC(=O)C1=C(C)Nc2ccccc2S1` [Beispiel 8], the “Minimale Konzentration für die Hemmung der Lipoxygenase in Kaninchen-PMN-Leukozyten” value was 5x10^-7 - 10^-6 g/ml.
In the case of `CCCCOC(=O)C1=C(C)Nc2ccccc2S1` [Beispiel 9], the “Minimale Konzentration für die Hemmung der Lipoxygenase in Kaninchen-PMN-Leukozyten” value was 10^-6 g/ml.
With `CC(=O)C1=C(C)Nc2ccccc2S1` [Beispiel 11] the “Minimale Konzentration für die Hemmung der Lipoxygenase in Kaninchen-PMN-Leukozyten” value was 10^-6 g/ml.
`CC1=C(C(=O)OCCc2ccccc2)Sc2ccccc2N1` [Beispiel 12] was tested, and the “Minimale Konzentration für die Hemmung der Lipoxygenase in Kaninchen-PMN-Leukozyten” value was 10^-6 g/ml.
In the case of `CC1=C(C(=O)OCc2ccccc2)Sc2ccccc2N1` [Beispiel 13], the “Minimale Konzentration für die Hemmung der Lipoxygenase in Kaninchen-PMN-Leukozyten” value was 5x10^-7 - 10^-6 g/ml.
With `COc1ccc2c(c1)SC(C(=O)OCCC#N)=C(C)N2` [Beispiel 28] the “Minimale Konzentration für die Hemmung der Lipoxygenase in Kaninchen-PMN-Leukozyten” value was 10^-6 g/ml.
With `CSCCOC(=O)C1=C(C)Nc2ccc(C)cc2S1` [Beispiel 29] the “Minimale Konzentration für die Hemmung der Lipoxygenase in Kaninchen-PMN-Leukozyten” value was 10^-6 g/ml.
In the case of `CCOC(=O)C1=CNc2ccc(OC)cc2S1` [Beispiel 32], the “Minimale Konzentration für die Hemmung der Lipoxygenase in Kaninchen-PMN-Leukozyten” value was 10^-6 g/ml.
`CCN1C=C(C(=O)O)Sc2cc([N+](=O)[O-])ccc21` [Beispiel 37] was tested, and the “Minimale Konzentration für die Hemmung der Lipoxygenase in Kaninchen-PMN-Leukozyten” value was 5e-06 g/mL.
With `CCN1C=C(C(=O)OC)Sc2cc([N+](=O)[O-])ccc21` [Beispiel 40] the “Minimale Konzentration für die Hemmung der Lipoxygenase in Kaninchen-PMN-Leukozyten” value was 5e-06 g/mL.
